Assay results: patent US20250186563A1, “UNIT DOSE FORMULATION OF ANTIDOTES FOR FACTOR XA INHIBITORS AND METHODS OF USING THE SAME” (Alexion Pharmaceuticals, Inc., priority 2009, published 2025)

Assays:
[1] = cited from earlier work
[2] = tested on: enoxaparin-induced anticoagulation; test: Enoxaparin-induced anticoagulation and its reversal in rats; type: in vivo
[3] = tested on: blood loss due to fondaparinux; test: Rat tail transection blood loss model, fondaparinux; type: in vivo, Sprague-Dawley rats; conditions: fondaparinux 25 mg/kg IV bolus, protamine 0.9 mg IV bolus
[4] = Sustained reversal of betrixaban-induced anticoagulation in rats; type: in vivo; conditions: rat, plasma, intravenous
thrombin generation = test: Thrombin generation assay in platelet poor plasma; type: biochemical, human; conditions: betrixaban 250 nM; in presence of rfVIIa (50-200 nM) and tissue factor; PPP
[5] = In vivo mouse model, PK-PD of betrixaban with antidote; parameters: species or system C57Bl/6 mice; conditions: male, C57Bl/6, mouse, plasma, oral, Betrixaban (ng/mL), […] after 15 mg/kg betrixaban PO, 5 min after antidote injection
[6] = tested on: aPTT of pooled human plasma; test: aPTT human plasma clotting assay (MLA Electra 800 coagulation timer); type: biochemical
fXa (bovine fXa) = test: Plasma anti-fXa activity assay (modified Coamatic LMWH kit); type: in vivo; parameters: dose or concentration left out as unconfirmed; conditions: fondaparinux
[7] = tested on: PT of rhesus monkey plasma; test: Prothrombin time in rhesus monkey plasma; type: biochemical, rhesus monkeys; conditions: 250 nM rivaroxaban; baseline 17.5±1.6 sec
[8] = tested on: PT of pooled human plasma; test: Prothrombin time (PT) human plasma clotting assay; type: biochemical
[9] = in vivo; cited from earlier work
[10] = tested on: blood loss due to enoxaparin; parameters: species or system Sprague-Dawley rats; conditions: in vivo
[11] = tested on: clot formation in human platelet poor plasma; test: Clotting prolongation assay, 96-well plate format (OD405 turbidity); type: biochemical; conditions: 1 U/ml enoxaparin; aPTT reagent
[12] = 1 mg/kg/hr, Betrixaban alone (uM), plasma concentration, betrixaban 1.0 mg/kg/hr IV for 30 min, no antidote
[13] = Betrixaban + antidote (uM), betrixaban plasma concentration, betrixaban infusion then r-Antidote 5 mg bolus + 5 mg/hr

**Q.** What does the source list for protamine sulfate?
**A.** neutralization of enoxaparin activity ([1]; slow intravenous infusion of protamine sulfate, enoxaparin prescribing information): up to 60%; reversal of enoxaparin-induced anticoagulation (plasma aPTT) ([2]; rats, enoxaparin 3.0 mg/kg, r-Antidote 5 mg bolus + 5 mg/h or protamine sulfate 0.9 mg): sustained reversal; reversal of blood loss due to fondaparinux ([3]; listed as Protamine): failed to display corrective activity; reversal of blood loss due to fondaparinux ([3]; listed as protamine): did not reverse blood loss

**Q.** Which results are given for `COc1ccc(NC(=O)c2ccc(C(=N)N(C)C)cc2)c(C(=O)Nc2ccc(Cl)cn2)c1` [betrixaban, [2-({4-[(dimethylamino)iminomethyl]phenyl}carbonylamino)-5-methoxyphenyl]-N-(5-chloro(2-pyridyl))carboxamide]?
**A.** concentration at 30 min ([4]; 1 mg/kg/hr, Betrixaban + antidote (uM), betrixaban plasma concentration, betrixaban 1.0 mg/kg/hr IV for 30 min, antidote group before antidote dosing): 0.154 µM; concentration at 30 min [4, 12]: 0.169 µM; concentration at 35 min [4, 12]: 0.062 µM; concentration at 60 min [4, 12]: 0.045 µM; concentration at 90 min [4, 12]: 0.048 µM; concentration at 35 min [4, 13]: 1.57 µM; concentration at 60 min [4, 13]: 1.88 µM; concentration at 90 min [4, 13]: 1.19 µM; inhibition of fXa by betrixaban (thrombin generation) (thrombin generation): about 75%; concentration at […] ([5]; Mean, pd-Antidote treated mice): 687 ng/mL; concentration at […] ([5]; Mean, r-Antidote treated mice): 381 ng/mL; concentration at […] ([5]; individual animal, r-Antidote treated mice): 434 ng/mL; aPTT ([6]; 300 nM Betrixaban): 61.8 s; aPTT ([6]; 400 nM betrixaban): 66.3 s; extension of aPTT ([6]; 400 nM betrixaban): more than two folds

**Q.** With `CO[C@H]1O[C@H](COS(=O)(=O)O)[C@@H](O[C@@H]2O[C@@H](C(=O)O)[C@@H](O[C@H]3O[C@H](COS(=O)(=O)O)[C@@H](O[C@@H]4O[C@H](C(=O)O)[C@@H](O[C@H]5O[C@H](COS(=O)(=O)O)[C@@H](O)[C@H](O)[C@H]5NS(=O)(=O)O)[C@H](O)[C@H]4O)[C@H](OS(=O)(=O)O)[C@H]3NS(=O)(=O)O)[C@H](O)[C@H]2OS(=O)(=O)O)[C@H](O)[C@H]1NS(=O)(=O)O` [fondaparinux] as the compound, how does the “anti-fXa activity expressed with enoxaparin as the standard” value (fXa (bovine fXa); human plasma) read?
**A.** Its value is 0.80 U/ml enoxaparin.

**Q.** And the “anti-fXa activity expressed with enoxaparin as the standard” value (fXa (bovine fXa); rat plasma)?
**A.** Its value is 0.66 U/ml enoxaparin.

**Q.** For `O=C(NC[C@H]1CN(c2ccc(N3CCOCC3=O)cc2)C(=O)O1)c1ccc(Cl)s1` [rivaroxaban], which “PT (average±standard deviation)” value [7] is on record?
**A.** Its value is 32.3 ± 6.1 s.

**Q.** And the PT ([8]; 1 μM rivaroxaban, baseline PT 14.1 sec)?
**A.** Its PT is 23.4 s.

**Q.** What about the Reported therapeutic concentration [9] of the same compound?
**A.** The Reported therapeutic concentration was “approximately 600 nM”.

**Q.** Which “PT” value ([8]; 1 μM apixaban) does the source give for `COc1ccc(-n2nc(C(N)=O)c3c2C(=O)N(c2ccc(N4CCCCC4=O)cc2)CC3)cc1` [apixaban] here?
**A.** Its value is 16.4 s.

**Q.** For enoxaparin, which “peak anti fXa activity” value ([1]; human, in vivo, sc, 1 mg/kg) is on record?
**A.** Its value is 1.1 U/ml.

**Q.** What about the Mean absolute bioavailability ([1]; human, in vivo, sc) of the same compound?
**A.** Its Mean absolute bioavailability is 92%.

**Q.** What about the “anti-fXa level corresponding to prescribed dose” value ([1]; human, in vivo) of the same compound?
**A.** Its value is “approximately 1 U/mL”.

**Q.** And the “maximum blood loss (plateau), of normal rat blood volume” value [10]?
**A.** The value was “approximately 5%”.

**Q.** What about the “peak anticoagulation in rat plasma (Coatest LMW heparin assay)” value ([2]; enoxaparin 1 mg/kg IV bolus) of the same compound?
**A.** Its value is 1 anti fXa U/ml.

**Q.** And the “peak anticoagulation in rat plasma (Coatest LMW heparin assay)” value ([2]; enoxaparin 3 mg/kg IV bolus)?
**A.** The value was 4 anti fXa U/ml.

**Q.** And the “whole blood INR” value ([2]; rats, enoxaparin 1, 3 and 6 mg/kg IV bolus)?
**A.** Its value is “dose proportional extensions”.

**Q.** What about the “extension of clotting time compared to control plasma” value [11] of the same compound?
**A.** Its value is “greater than 5 fold”.
